Measurements reported in ChEMBL document CHEMBL1124516, “Synthesis of 2,3-diaziridinyl-1,4-naphthoquinone sulfonate derivatives as potential antineoplastic agents” (1989).

Assays:
Mus musculus [1] = experiment: Average change in weight in mice bearing the B16 Melanoma, when compound(50 mg/kg) was administered intraperitoneally beginning 24 hr after tumor implantation, daily once for 6 consecutive days.; assay type: functional
Mus musculus [2] = experiment: Average change in weight in mice bearing the L1210 Leukemia, when compound (20 mg/kg) was administered once daily beginning 24 hr after tumor implantation, for 6 consecutive days.; assay type: functional
Mus musculus [3] = experiment: Average change in weight in mice bearing the L1210 Leukemia, when compound (25 mg/kg) was administered once daily beginning 24 hr after tumor implantation, for 6 consecutive days.; assay type: functional
Mus musculus [4] = experiment: Average change in weight in mice bearing the L1210 Leukemia, when compound(30 mg/kg) was administered once daily beginning 24 hr after tumor implantation, for 6 consecutive days.; assay type: functional
Mus musculus [5] = experiment: Average change in weight in mice bearing the B16 Melanoma, when compound(150 mg/kg) was administered beginning 24 hr after tumor implantation, daily once for 6 consecutive days.; assay type: functional
Mus musculus [6] = experiment: Average change in weight in mice bearing the B16 Melanoma, when compound(100 mg/kg) was administered beginning 24 hr after tumor implantation, daily once for 6 consecutive days.; assay type: functional
Mus musculus [7] = experiment: The ratio of the survival time of treated to control animals x 100 in mice bearing B16 Melanoma, when compound (100 mg/kg) was administered intraperitoneally; assay type: functional
Mus musculus [8] = experiment: The ratio of the survival time of treated to control animals x 100 in mice bearing B16 Melanoma, when compound (150 mg/kg) was administered intraperitoneally; assay type: functional
Mus musculus [9] = experiment: The ratio of the survival time of treated to control animals x 100 in mice bearing B16 Melanoma, when compound (50 mg/kg) was administered intraperitoneally; assay type: functional
L1210 [10] = experiment: Percentage survival time of L1210 (murine leukemia) inoculated mice following 25 mg/kg i.p.; assay type: functional, Mus musculus; settings: route intraperitoneal
L1210 [11] = experiment: Percentage survival time of L1210 (murine leukemia) inoculated mice following 30 mg/kg i.p.; assay type: functional, Mus musculus; settings: route intraperitoneal
L1210 [12] = experiment: Percentage survival time of L1210 (murine leukemia) inoculated mice following 20 mg/kg i.p.; assay type: functional, Mus musculus; settings: route intraperitoneal
Mus musculus [13] = experiment: Survival of mice bearing B16 melanoma cells greater than 50 days when treated with a dose of 100 mg/Kg administered intraperitoneally; tested in 5 mice; assay type: functional
Mus musculus [14] = experiment: Survival of mice bearing B16 melanoma cells greater than 50 days when treated with a dose of 150 mg/Kg administered intraperitoneally; tested in 5 mice; assay type: functional
Mus musculus [15] = experiment: Survival of mice bearing B16 melanoma cells greater than 50 days when treated with a dose of 50 mg/Kg administered intraperitoneally; tested in 5 mice; assay type: functional
Mus musculus [16] = experiment: Number of mice surviving for a period greater than 50 days when a dose of 30 mg/Kg is administered intraperitoneally; tested in 5 mice; assay type: functional
Mus musculus [17] = experiment: Number of mice survived for a period greater than 50 days when a dose of 20 mg/Kg is administered intraperitoneally; tested in 5 mice; assay type: functional
L1210 [18] = experiment: Number L1210 (murine leukemia) inoculated mice surviving for >50 days following 25 mg/kg i.p.; assay type: functional, Mus musculus; settings: route intraperitoneal
Mus musculus [19] = experiment: Average change in weight in mice bearing the L1210 Leukemia, when compound (10 mg/kg) was administered beginning 24 hr after tumor implantation, daily once for 6 consecutive days.; assay type: functional
Mus musculus [20] = experiment: Average change in weight in mice bearing the L1210 Leukemia, when compound (5 mg/kg) was administered beginning 24 hr after tumor implantation, daily once for 6 consecutive days.; assay type: functional
Mus musculus [21] = experiment: Average change in weight in mice bearing the L1210 Leukemia, when compound (15 mg/kg) was administered beginning 24 hr after tumor implantation, daily once for 6 consecutive days.; assay type: functional
Mus musculus [22] = experiment: The ratio of the survival time of treated to control animals x 100 in mice bearing L1210 Leukemia, when compound (10 mg/kg) was administered intraperitoneally; assay type: functional
Mus musculus [23] = experiment: The ratio of the survival time of treated to control animals x 100 in mice bearing L1210 Leukemia, when compound (15 mg/kg) was administered intraperitoneally; assay type: functional
Mus musculus [24] = experiment: The ratio of the survival time of treated to control animals x 100 in mice bearing L1210 leukemia, when compound (5 mg/kg) was administered intraperitoneally; assay type: functional
Mus musculus [25] = experiment: Number of mice survived for a period of greater than 50 days when a dose of 5 mg/Kg is administered intraperitoneally; tested in 5 mice; assay type: functional
Mus musculus [26] = experiment: Number of mice survived for a period of greater than 50 days when a dose of 10 mg/Kg is administered intraperitoneally; tested in 5 mice; assay type: functional
Mus musculus [27] = experiment: Number of mice survived for a period of greater than 50 days when a dose of 15 mg/Kg is administered intraperitoneally; tested in 5 mice; assay type: functional
Mus musculus [28] = experiment: Number of mice survived for a period of greater than 50 days when a dose of 25 mg/Kg is administered intraperitoneally; tested in 4 mice; assay type: functional
Mus musculus [29] = experiment: Average change in weight in mice bearing the B16 Melanoma, when compound (20 mg/kg) was administered beginning 24 hr after tumor implantation, daily once for 6 consecutive days.; assay type: functional
Mus musculus [30] = experiment: Average change in weight in mice bearing the L1210 Leukemia, when compound(15 mg/kg) was administered beginning 24 h after tumor implantation, daily once for 6 consecutive days.; assay type: functional
Mus musculus [31] = experiment: Average change in weight in mice bearing the B16 Melanoma, when compound (15 mg/kg) was administered beginning 24 h after tumor implantation, daily once for 6 consecutive days.; assay type: functional
Mus musculus [32] = experiment: Average change in weight in mice bearing the B16 Melanoma, when compound(10 mg/kg) was administered intraperitoneally beginning 24 hr after tumor implantation, daily once for 6 consecutive days.; assay type: functional
Mus musculus [33] = experiment: The ratio of the survival time of treated to control animals x 100 in mice bearing B16 Melanoma, when compound (15 mg/kg) was administered intraperitoneally; assay type: functional
Mus musculus [34] = experiment: The ratio of the survival time of treated to control animals x 100 in mice bearing B16 Melanoma, when compound (20 mg/kg) was administered intraperitoneally; assay type: functional
Mus musculus [35] = experiment: The ratio of the survival time of treated to control animals x 100 in mice bearing B16 Melanoma, when compound (5 mg/kg) was administered intraperitoneally; assay type: functional
Mus musculus [36] = experiment: Average change in weight in mice bearing the B16 Melanoma, when compound(3 mg/kg) was administered beginning 24 hr after tumor implantation, daily once for 6 consecutive days.; assay type: functional
Mus musculus [37] = experiment: Average change in weight in mice bearing the L1210 Leukemia, when compound (3 mg/kg) was administered beginning 24 hr after tumor implantation, daily once for 6 consecutive days.; assay type: functional
Mus musculus [38] = experiment: The ratio of the survival time of treated to control animals x 100 in mice bearing B16 Melanoma, when compound (3 mg/kg) was administered intraperitoneally; assay type: functional
Mus musculus [39] = experiment: The ratio of the survival time of treated to control animals x 100 in mice bearing L1210 leukemia, when compound (3 mg/kg) was administered intraperitoneally; assay type: functional
Mus musculus [40] = experiment: Survival of mice bearing B16 melanoma cells greater than 50 days when treated with a dose of 3 mg/Kg administered intraperitoneally; tested in 5 mice; assay type: functional
Mus musculus [41] = experiment: Number of mice survived for a period of greater than 50 days when a dose of 3 mg/Kg is administered intraperitoneally; tested in 5 mice; assay type: functional
Mus musculus [42] = experiment: Number of mice survived for a period of greater than 50 days when a dose of 10 mg/kg is administered intraperitoneally; tested in 5 mice; assay type: functional; settings: route intraperitoneal
Mus musculus [43] = experiment: Number of mice survived for a period of greater than 50 days when a dose of 15 mg/kg is administered intraperitoneally; tested in 5 mice; assay type: functional; settings: route intraperitoneal
Mus musculus [44] = experiment: Number of mice survived for a period of greater than 50 days when a dose of 25 mg/Kg is administered intraperitoneally; tested in 10 mice; assay type: functional
Mus musculus [45] = experiment: Number of mice survived for a period of greater than 50 days when a dose of 30 mg/Kg is administered intraperitoneally; tested in 10 mice; assay type: functional
Mus musculus [46] = experiment: Number of mice survived for a period of greater than 50 days when a dose of 20 mg/Kg is administered intraperitoneally; tested in 10 mice; assay type: functional

Row | SMILES | Average body weight change (Mus musculus [1]) [%] | Average change in body weight (Mus musculus [2]) [%] | Average body weight change (Mus musculus [3]) [%] | Average change in body weight (Mus musculus [4]) [%] | Average change in body weight (Mus musculus [5]) [%] | Average change in body weight (Mus musculus [6]) [%] | Activity (Mus musculus [7]) | Activity (Mus musculus [8]) | Activity (Mus musculus [9]) | Activity (L1210 [10]) | Activity (L1210 [11]) | Activity (L1210 [12]) | Survivals (Mus musculus [13]) | Survivals (Mus musculus [14]) | Survivals (Mus musculus [15]) | Survivals (Mus musculus [16]) | Survivals (Mus musculus [17]) | Survivals (L1210 [18]) | Average weight (Mus musculus [19]) [%] | Average weight (Mus musculus [20]) [%] | further results
1 | O=C1C(N2CC2)=C(N2CC2)C(=O)c2c(OS(=O)(=O)c3ccc(Cl)cc3)cccc21 | 1.1 | 4.2 | 1.7 | -2.7 | -3.2 | -2.5 | 153 | 178 | 143 | 200 | 167 | 161 | 0 | 0 | 0 | 3 | 0 | 0 |  |  | 
2 | O=C1C(N2CC2)=C(N2CC2)C(=O)c2c(OS(=O)(=O)c3ccccc3)cccc21 | -1.3 | -6.2 | -8.3 | -7 | -13.5 | -12.3 | 180 | 148 | 156 |  | 359 |  | 0 | 0 | 0 | 4 | 5 | 5 |  |  | 
3 | O=C1C(N2CC2)=C(N2CC2)C(=O)c2c(O)cccc21 |  |  |  |  |  |  |  |  |  |  |  |  |  |  |  |  |  |  | -3.2 | 6.3 | Average weight (Mus musculus [21]): -0.8%; Activity (Mus musculus [22]): 96; Activity (Mus musculus [23]): 104; Activity (Mus musculus [24]): 114; Survivals (Mus musculus [25]): 0; Survivals (Mus musculus [26]): 0; Survivals (Mus musculus [27]): 0
4 | COc1ccc(S(=O)(=O)Oc2cccc3c2C(=O)C(N2CC2)=C(N2CC2)C3=O)cc1 | -4.7 | -0.1 | -2.4 | -1.3 | -15.2 | -12.4 | 154 | 165 | 132 | 222 | 193 | 175 | 0 | 0 | 0 | 3 | 0 |  |  |  | Survivals (Mus musculus [28]): 1
5 | CS(=O)(=O)Oc1cccc2c1C(=O)C(N1CC1)=C(N1CC1)C2=O |  |  |  |  |  |  |  |  |  |  |  |  |  |  |  | 2 | 0 | 4 | -7.1 | 3.3 | Average weight (Mus musculus [29]): -8.1%; Average weight (Mus musculus [30]): -10%; Average weight (Mus musculus [31]): -6.4%; Average weight (Mus musculus [32]): -3.8%; Activity (Mus musculus [33]): 137; Activity (Mus musculus [34]): 153; Activity (Mus musculus [35]): 125; Activity (Mus musculus [22]): 185; Activity (Mus musculus [23]): 295; Activity (Mus musculus [24]): 130
6 | CCOC(=O)NC1=C(N2CC2)C(=O)C(NC(=O)OCC)=C(N2CC2)C1=O [DIAZIQUONE] |  |  |  |  |  |  |  |  |  |  |  |  |  |  |  |  |  |  |  |  | Average weight (Mus musculus [36]): -13.8%; Average weight (Mus musculus [37]): -11.7%; Activity (Mus musculus [38]): 147; Activity (Mus musculus [39]): 231; Survivals (Mus musculus [40]): 0; Survivals (Mus musculus [41]): 0
7 | O=C1C(N2CC2)=CC(=O)c2c(O)cccc21 |  |  |  |  |  |  |  |  |  |  |  |  |  |  |  |  |  |  | 5.1 | 12.7 | Average weight (Mus musculus [21]): 2.1%; Activity (Mus musculus [22]): 94; Activity (Mus musculus [23]): 90; Activity (Mus musculus [24]): 231; Survival (Mus musculus [42]): 0; Survival (Mus musculus [43]): 0; Survival (Mus musculus [25]): 0
8 | Cc1ccc(S(=O)(=O)Oc2cccc3c2C(=O)C(N2CC2)=C(N2CC2)C3=O)cc1 | 4.5 | -2.2 | -3.5 | -7.4 | -9.8 | -1.9 | 153 | 141 | 144 | 490 | 248 | 155 | 0 | 0 | 0 |  |  |  |  |  | Survivals (Mus musculus [44]): 9; Survivals (Mus musculus [45]): 7; Survivals (Mus musculus [46]): 7
